From ChEMBL document CHEMBL3507680, “University of Dundee, Gates Library screen for HepG2 cell viability”

Test: Human HepG2 cell viability assay in 384 well format
Type: toxicity, cell-based
Parameters: dose 125 nL, time 70.5 hour; concentration not given beside the values
Conditions: HepG2 cells, read-out: Inhibition

| Structure (SMILES) | cytotoxicity at 70.5 h |
| --- | --- |
| O=C(CCCc1ccccn1)N1CCCC(n2cccn2)C1 (stereo not drawn) | -3.36% |
| O=C(CCc1ccco1)N1CCCC(n2cccn2)C1 (stereo not drawn) | -0.72% |
| COc1ccc(C(=O)Nc2cnn(CCN3CCOCC3)c2)c(O)c1 | 0.79% |
| CC(=O)N1CCCCCC1C1CCN(c2ncccc2C#N)CC1 (stereo not drawn) | -1.45% |
| Cc1cnn(CCNCc2csc(-c3ccco3)n2)c1 | 18% |
| Cc1cnn(CCNCc2csc(-c3ncccn3)n2)c1 | 18.5% |
| CCNc1cc2c(nn1)CCN(C(=O)c1ccnc(-n3ccnc3)c1)C2 | -6.16% |
| CCOCC(O)CN1CCN(C(=O)c2ccc(C)nc2)CC1 (stereo not drawn) | 0.688% |
| COCC(c1cccc(C(F)(F)F)c1)N(C)C(=O)c1cnccn1 (stereo not drawn) | -9.11% |
| CC(C)N(C(=O)CN(C)C1CCc2ccccc21)C(C)C (stereo not drawn) | -0.805% |
| Cc1cnn(CCNCc2csc(-c3ccsc3)n2)c1 | -6.72% |
| Cc1cnc(C(=O)NC(CN2CCCC2=O)c2ccccc2)cn1 (stereo not drawn) | -1.21% |
| CC(C)c1ccc(OCCC(=O)N2CCC(C(N)=O)CC2)cc1 | -4.09% |
| COc1c(CNCc2ccc(N(C)C)nc2)c(C)nn1C | 24.3% |
| Cc1nc(-c2ccsc2)ccc1C(=O)NCC(C)N1CCOCC1 (stereo not drawn) | -4.37% |
| O=C(CN1CCC(c2ccccc2)C1)NC(=O)NCC(F)(F)F (stereo not drawn) | 21.4% |
| CC(C)c1ccc(OCCC(=O)N2CCCN(C(N)=O)CC2)cc1 | -1.87% |
| CCNc1cc2c(nn1)CCN(C(=O)c1ccsc1)C2 | -3.61% |
| CCc1nnc2n1CCN(CC(=O)Nc1cc(C)nn1C)C2 | -4.31% |
| Cc1nn(C)c(C)c1CC(=O)N1CCCN(c2cccnn2)CC1 | 5.97% |
| Cc1noc(Cl)c1CC(=O)N1CCC(Nc2cccnn2)CC1 | -1.04% |
| CCNc1cc2c(nn1)CCN(C(=O)c1ccc(-n3cnnc3)cc1)C2 | -0.933% |
| O=C(CSc1ccc(F)cc1F)NS(=O)(=O)c1ccc2c(c1)OCCO2 | -3.46% |
| CCNc1cc2c(nn1)CCN(C(=O)c1ccnc(C)n1)C2 | -2.85% |

| Structure (SMILES) | cytotoxicity at 70.5 h |
| --- | --- |
| Cc1nc(C)n(CC2CCCN2Cc2cc(-c3cccs3)on2)n1 (stereo not drawn) | -13.7% |
| Cc1csc(N2CCCN(C(=O)C3(C#N)CCCC3)CC2)n1 | -8.33% |
| Cc1cc(C)n(CC2CCCN2C(=O)CCc2ccco2)n1 (stereo not drawn) | -14.5% |
| CN(C)c1ccc(C(=O)N2CCCC(n3cccn3)C2)cn1 (stereo not drawn) | 15% |
| Cc1nc(C)n(CC2CCCCN2Cc2nc(-c3ccoc3)no2)n1 (stereo not drawn) | -11.8% |
| Cc1nc(CCNCc2c(C)nn(C)c2N2CCOCC2)cs1 | -0.903% |
| Cc1cc(CN2CCN(C(=O)NC(C)c3cccnc3)CC2)no1 (stereo not drawn) | -8.62% |
| CC(C(=O)NCc1ccnc(N(C)C)c1)n1cccn1 (stereo not drawn) | -3.71% |
| CN1CCN(c2cc(CNC(=O)Cn3cccn3)ccn2)CC1 | 13.6% |
| O=C(c1ccc(N2CCOCC2)nc1)N1CCCC(n2cccn2)C1 (stereo not drawn) | -13.9% |
| CCOc1ccccc1C(CC(=O)Nc1ccccn1)NC(C)=O (stereo not drawn) | -5.35% |
| COC(=O)c1cc(C(=O)N2CCN(C)CC2)n(-c2ccccc2)n1 | -6.12% |
| Cc1nc(C)n(CC2CCCN2Cc2nc(-c3ccco3)no2)n1 (stereo not drawn) | -4.04% |
| COC(=O)c1cc(C(=O)N2CCOC(C)(C)C2)n(-c2ccccc2)n1 | -10.1% |
| Cc1cc(C)n(CC2CCCN2C(=O)CCc2nccs2)n1 (stereo not drawn) | -7.22% |
| Cc1cnn(CCNCc2csc(-c3ccc(C)o3)n2)c1 | 19.9% |
| COCCCN1CCC(C(=O)c2cc(F)ccc2F)CC1 | -0.37% |
| Cc1cnn(CCNCc2nc(-c3ccccn3)no2)c1 | -6.05% |
| CC(=O)N1CCCN(C(=O)NCc2cccnc2OC(C)C)CC1 | -5.61% |
| COC(=O)CN1CCC(C(=O)c2cc(F)ccc2F)CC1 | -3.39% |
| COCCN1CCC(C(=O)c2cc(F)ccc2F)CC1 | -2.7% |
| CCc1nc(CNCCn2cc(C)cn2)no1 | -5.71% |
| CCc1nc(C2CCCN2C(=O)c2cc3c(s2)CCC3)no1 (stereo not drawn) | -2.7% |
| NC(=O)C1CCN(C(=O)NCc2cccnc2OC2CCCC2)C1 (stereo not drawn) | -5.81% |

| Structure (SMILES) | cytotoxicity at 70.5 h |
| --- | --- |
| CCOc1ccccc1OC1CCN(C(=O)c2c[nH]nn2)CC1 | -0.281% |
| CCOc1ccccc1OC1CCN(C(=O)c2cnns2)CC1 | -3.73% |
| Cc1ncccc1CNC1CCCN(Cc2noc(C3CC3)n2)C1 (stereo not drawn) | 0.441% |
| CCc1nc(C2CCCN2CC(=O)N2CCCc3ccccc32)no1 (stereo not drawn) | 22% |
| O=C(N1CCCCC1)N1CCN(CC(O)c2ccccc2)CC1 (stereo not drawn) | -3.61% |
| O=C(Cc1ccc2c(c1)OCCO2)N1CCN(c2cnccn2)CC1 | -1.49% |
| CC(=O)N1CCN(C(=O)NCc2cccnc2OC(C)C)CC1 | 26.4% |
| CCOc1ccccc1OC1CCN(C(=O)c2csnn2)CC1 | -5.03% |
| O=C(Cc1ccc2c(c1)CCO2)N1CCN(c2ccccn2)CC1 | 2.5% |
| O=C(Cc1ccc2c(c1)CCO2)N1CCN(c2ccncc2)CC1 | 6.77% |
| Cc1cc(C)c(CNC(=O)NCc2ccc(F)cc2)c(=O)[nH]1 | -3.16% |
| O=C(Cc1ccccc1)N1CCN(CC(O)c2ccc(F)cc2)CC1 (stereo not drawn) | -4.03% |
| O=C(N1CCOCC1)N1CCN(CC(O)c2ccc(F)cc2)CC1 (stereo not drawn) | 3.33% |
| CCn1ccnc1CN1CCN(CCOc2ccc(C#N)cc2)CC1 | -4.7% |
| NC(=O)COc1cccc(CN2CCc3cncnc3C2)c1 | -0.423% |
| CC1CN(C(=O)c2ccn(-c3cccc(Cl)c3)n2)CCO1 (stereo not drawn) | -6.58% |
| CCc1nnc2n1CCN(C(=O)c1cc(Br)c[nH]1)C2 | -5.11% |
| c1csc(-c2nc(CNC3CCc4ncnn4C3)co2)c1 (stereo not drawn) | -10% |
| COc1cccc(S(=O)(=O)NC(=O)COc2c(C)cccc2C)c1 | -9.64% |
| CCc1nnc2n1CCN(C(=O)c1cc3cc(F)ccc3[nH]1)C2 | 0.76% |
| Cc1ccc(C(=O)Nc2cc(C(C)C)n[nH]2)cn1 | 31.4% |
| CCc1csc(C2CCCN(C(=O)c3ccc(OC)nn3)C2)n1 (stereo not drawn) | -9.56% |
| CCc1nc(C2CCCN2CC(=O)Nc2nncs2)no1 (stereo not drawn) | -2.48% |
| CC(C)c1cc(NC(=O)c2ccc(NC3CC3)nc2)[nH]n1 | -5.73% |

| Structure (SMILES) | cytotoxicity at 70.5 h |
| --- | --- |
| CC1CN(C)CCN1C(=O)c1ccn(-c2cccc(Cl)c2)n1 (stereo not drawn) | -13.2% |
| CC(C)c1nc(C2CCCN2Cc2ccno2)no1 (stereo not drawn) | -12% |
| CC(C)c1nc(C2CCCN2Cc2ccccc2C#N)no1 (stereo not drawn) | 5.38% |
| Cc1nc(CN(C)C2CCCN(c3cccnn3)C2)no1 (stereo not drawn) | 17.1% |
| CCn1cc(CN2CCCN(C(=O)CCc3ccncc3)CC2)cn1 | 25.1% |
| COC(=O)CCc1c(C)nc2cc(O)nn2c1C | -2.64% |
| CC(C)C(Sc1nnnn1C1CC1)C(=O)NCc1cccnc1 (stereo not drawn) | -7.01% |
| CCNC(=O)CCc1c(C)nc2cc(O)nn2c1C | -5% |
| Cc1cc(CNc2ccc(C(=O)N3CCCC(C)C3)cc2C)no1 (stereo not drawn) | -16.5% |
| COc1ccc(NC(=O)CCc2c(C)nc3cc(O)nn3c2C)cn1 | -2.2% |
| CCn1cnnc1C1CCN(C(=O)c2cccc3c2ccn3C)CC1 | 6.06% |
| CC(=O)N(C)c1nc(CN2CCCCC2Cn2cncn2)cs1 (stereo not drawn) | -6.38% |
| CCNC(=O)N(C)C(c1cccc(F)c1)c1ccccn1 (stereo not drawn) | -14% |
| Cc1cnn(C2CN(Cc3nc(-c4ccco4)no3)C2)c1 | -10.1% |
| Cc1oc(C(=O)O)cc1S(=O)(=O)Nc1ccc(Cl)c(F)c1 | -6.62% |
| CCOc1ccc(Cl)c(C(=O)N2CCN(CCO)CC2)n1 | -6.15% |
| CCn1cnnc1CNC(=O)N1CCN(c2nc(C)c(C)s2)CC1 | -3.66% |
| CCC(C)(C)NC(=O)CN(C)C(c1cccc(F)c1)c1ccccn1 (stereo not drawn) | 0.639% |
| Cc1cccc(-c2noc(CN3CC(n4cc(C)cn4)C3)n2)c1 | -5.31% |
| CC(C)C(Sc1nnc(C2CC2)n1C1CC1)C(=O)NCc1cccnc1 (stereo not drawn) | -8.64% |
| CN(Cc1ccsc1)C(=O)c1cccc(S(=O)(=O)NC(C)(C)C)c1 | -2.95% |
| COc1ccc(-c2nc(CN3CCN(CCO)CC3)co2)cc1 | 30.3% |
| C=C(C)COCCNC(=O)C1CCCN1C(C)=O (stereo not drawn) | -13.6% |
| CC(C)OCCCNC(=O)CS(=O)(=O)Cc1ccc(Cl)c(Cl)c1 | -9.73% |

| Structure (SMILES) | cytotoxicity at 70.5 h |
| --- | --- |
| CC(C)(C)c1noc(CN2CCN(C(=O)c3cccs3)CC2)n1 | -12.1% |
| COc1ncccc1NC(=O)N(Cc1ccc(C)o1)C1CC1 | -9.49% |
| CCN(C(=O)Nc1cccnc1OC)C1CC1 | -9.27% |
| Cc1cccnc1NC(=O)NC(C)Cn1cccn1 (stereo not drawn) | -7.34% |
| CCN(Cc1ccc2c(c1)OCCO2)S(=O)(=O)N(C)C(C)C | -7.62% |
| CCn1c(C(=O)N2CCN(C(=O)NC(C)C)CC2)cc2ccccc21 | -9.47% |
| COc1c(C)cnc(CN2CCC(C(=O)N(C)C)CC2)c1C | -23.8% |
| Fc1ccc(-c2nnc(CN3CCCC3Cn3cncn3)o2)cc1 (stereo not drawn) | -8.54% |
| CCn1c(C(=O)N2CCN(CC(C)O)CC2)cc2ccccc21 (stereo not drawn) | 21.6% |
| Fc1ccc(-c2nnc(CN3CCOC(Cn4cncn4)C3)o2)cc1 (stereo not drawn) | -28.7% |
| Cc1cc(C(=O)N2CCCCC2c2nc(C)cs2)[nH]n1 (stereo not drawn) | -7.87% |
| COc1ccc(C(=O)N2CCCCC2c2nc(C)cs2)nn1 (stereo not drawn) | 23.8% |
| c1cnnc(NCC2CN(CCN3CCCCC3)CCO2)c1 (stereo not drawn) | -11.2% |
| O=C(CS(=O)(=O)CC1CCCCC1)NC1CCCCNC1=O (stereo not drawn) | -14.4% |
| OCCN1CCN(Cc2coc(-c3ccc(Cl)cc3)n2)CC1 | -11.8% |
| CC(C(=O)NCCCN1CCCCCC1=O)n1cncn1 (stereo not drawn) | -0.359% |
| CC(=O)NCCc1ccc(C(=O)N2CCCC2c2cnn(C)c2)cc1 (stereo not drawn) | 15.1% |
| Cn1cnnc1C1CCCN(C(=O)NCc2cc[nH]n2)C1 (stereo not drawn) | 18.7% |
| CN(Cc1cscn1)C1CCCN(Cc2noc(C3CC3)n2)C1 (stereo not drawn) | 22.4% |
| O=C(NCCn1ccnc1)c1cccc(F)c1 | -11.3% |
| CC(C)c1nn(C)c(Cl)c1CNCc1ccc(N(C)C)nc1 | -2.07% |
| COc1cccc(CNC(C)Cn2cccn2)c1OC (stereo not drawn) | 2.73% |
